Measured values: PubChem BioAssay AID449764 (Southern Research Specialized Biocontainment Screening …, 2010)

Test system: Mycobacterium tuberculosis H37Rv growth inhibition, no glycerol
Test: Mycobacterium tuberculosis H37Rv growth inhibition, no glycerol, confirmatory dose response (AID 449764);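 further: growth read after 7 days of incubation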
Details: for IC90: measured here: IC90 growth inhibition

SMILES | IC50 [µM] | IC90 [µM]
O=C(CCl)Nc1cccn2ncnc12 | 3.32 | 7.56
Cc1ccc(OC(=O)CCN2C(=O)c3ccccc3C2=O)cc1C | 85.1 | > 100
Cc1ccc(S(=O)(=O)Nc2cccc3ncccc23)s1 | 3.38 | 6.54
COc1ccc(-c2cc(C3CCN(C(=O)OC(C)(C)C)CC3)[nH]n2)cc1 | 38.7 | 53.7
c1ccc(CSc2ccc(-c3ccccn3)nn2)cc1 | 89.4 | 94.2
O=C(NCc1nnnn1-c1ccc(F)cc1)c1ccc([N+](=O)[O-])o1 | 53.7 | > 100
CCCCCCCCn1cnc2c(N)c(C)c(C)cc21 | 59.8 | 78.3
CCOC(=O)C(C)Sc1ncnc2c1nnn2-c1ccc(F)cc1 (stereo unspecified) | 2.61 | 9.68
O=C(CSc1nc2ccccc2c(=O)[nH]1)NCc1ccc(Cl)cc1 | 2.78 | 3.22
COc1ccc(C)c2sc(N(CCN(C)C)C(=O)/C=C/c3cccs3)nc12 | 30.6 | 36.1
Cc1cc(C)c2c(CN3CCN(Cc4ccccc4)CC3)cc(=O)oc2c1C | 48.1 | 55.2
COC(=O)c1cc(Sc2cccc(Cl)c2Cl)ccn1 | 29 | 40.5
O=C(Nc1cccnc1Cl)c1cc(-c2ccco2)on1 | 38.4 | > 100
Cc1ccc(-n2[nH]c(C)c(C=Nc3ccc(S(=O)(=O)Nc4nccs4)cc3)c2=O)c(C)c1 | 6.3 | 12
Cc1ccc(-n2nnc3c(=O)oc4ccccc4c32)cc1 | 1.88 | > 100
CCc1cc2c(=O)n(C(C)C(=O)OC3CCCCC3)cnc2s1 (stereo unspecified) | 24.1 | 52
Clc1cccc(-c2cc3nc4c(c(NCc5ccco5)n3n2)CCCC4)c1 | 22.1 | 24.7
CCCCC(=O)/C=C/n1c(=S)oc2ccccc21 | – | > 100
CCOC(=O)N1CCN(Cc2cc(Cl)c3cccnc3c2O)CC1 | 21.8 | 24.7
c1cc2c3c(cccc3c1)NC1(CCC3(CC1)Nc1cccc4cccc(c14)N3)N2 | 78.1 | > 100
O=C(c1ccc(Cl)cc1)N1N=C(c2ccccn2)CC1(O)C(F)(F)F (stereo unspecified) | 25.7 | > 100
CCCC(=O)Nc1ccc(C(=O)/C=C/c2ccc(SC)cc2)cc1 | 64.3 | 85.4

SMILES | IC50 [µM] | IC90 [µM]
CN(C)c1ccc(N=Nc2ccccc2C(=O)OCC(=O)NCC2CCCCC2)cc1 | 22.1 | 24.9
O[C@@H](c1cc(C(F)(F)F)nc2c(C(F)(F)F)cccc12)[C@H]1CCCCN1 | 22.7 | 25.5
CC[C@@H](C)[C@H](CN[C@H](CNC)C(C)C)NC[C@@H](C)c1ccc(CC(C)C)cc1 | 13.3 | 15.4
Cc1csc(NC(=O)CCCC(=O)O)c1-c1nc2ccccc2s1 | 90.7 | > 100
Cc1cc(/C=N/n2cnnc2)c(C)n1-c1ccc(OCc2ccc(Cl)cc2Cl)cc1 | 17.6 | 21.5
CCn1c2ccccc2c2cc(CN3CCN(Cc4cc(OC)ccc4O)CC3)ccc21 | 17.2 | 23.4
Cc1cccc(C(=O)OCC(=O)N2CCc3ccccc3C2)c1O | 24.8 | > 25
NC(=S)N/N=C/c1ccccc1OCCSc1ccc(Cl)cc1 | 37.8 | > 100
Ic1ccccc1CN[C@@H]1C2CCN(CC2)[C@@H]1C(c1ccccc1)c1ccccc1 | 28.9 | 42.7
C=CCC1(CC=C)CCCN1C(=O)c1cc(COc2ccc(-n3cncn3)cc2)on1 | 47.3 | 57.4
CCn1c(=O)c(CCC(=O)N2CCN(c3ccccn3)CC2)c(C)c2c(C)nn(-c3cccc(C)c3)c21 | 21.8 | > 100
COc1ccc(N2CCN(C(=O)c3cc4c(C)nc5ccccc5c4o3)CC2)cc1 | 81.3 | > 100
Nc1ccc2cc(Br)ccc2c1 | 54.1 | 81.6
OC(CN1CCCCC1)Cn1c2ccc(Cl)cc2c2cc(Cl)ccc21 (stereo unspecified) | 11.2 | 12.5
CCc1ccc(NC2=NCC(c3ccccc3)S2)cc1 (stereo unspecified) | 8.96 | 16.7
O=c1c(-c2cnn(-c3ccccc3)c2)coc2cc(O)ccc12 | 48.1 | > 100
COc1ccccc1C1c2ccc3ccccc3c2Oc2ncn(CCN(C)C)c(=N)c21 (stereo unspecified) | 25.2 | 28.9
COc1cc(/C=C2\C(=O)N(c3ccc(S(N)(=O)=O)cc3)N=C2C)ccc1OC(=O)c1ccco1 | 22.6 | 26.1
FC(F)(Cl)c1nnc2ccc(Cl)nn12 | 0.73 | 0.8
O=C(N/N=C\c1ccc[nH]1)c1cncc(Br)c1 | 45.3 | 50.8
CC[n+]1c(/C=C/N(C)c2ccccc2)n(-c2ccccc2)c2ccc(-c3nc4ccccc4s3)cc21 | 1.13 | 1.36
CCC(C)N1CCC2(CC1)N=c1c(c3c4c5c(C)c(O)c3c(O)c1=NC(=O)C(C)=CC=C[C@H](C)[C@H](O)[C@@H](C)[C@@H](O)[C@@H](C)[C@H](OC(C)=O)[C@H](C)[C@@H](OC)C=CO[C@@](C)(O5)C4=O)N2 (stereo partly specified) | < 0.2 | < 0.2

SMILES | IC50 [µM] | IC90 [µM]
O=c1[nH]c(CN2CC=C(c3ccccc3)CC2)nc2cc(C(F)(F)F)ccc12 | 93.7 | 98.9
C#C[C@]1(O)CC[C@H]2[C@@H]3CCc4cc(OC5CCCC5)ccc4[C@H]3CC[C@@]21C | 36.6 | 54.7
COc1ccc(C2CC(=O)C3=C(C2)NC(C)=C(C#N)C3c2ccc(N(C)C)cc2)cc1 (stereo unspecified) | 22.2 | 35.6
CCOC(=O)c1ccc(NC(=O)C(C)Sc2nc(O)c(-c3ccccc3)c(=O)[nH]2)cc1 (stereo unspecified) | 18.4 | 35
Nc1c(N(CCC2=CCCCC2)C(=O)c2ccc([N+](=O)[O-])o2)c(=O)[nH]c(=O)n1Cc1ccccc1 | 27.9 | 48.2
COc1cccc(NC(=O)CNC(=O)Cn2cnc3sc4c(c3c2=O)CCCC4)c1 | 66.7 | > 100
NC(=O)CSc1nnc(COc2ccc3ccccc3c2)o1 | 20.8 | 27.3
COc1ccc(-c2c[n+]3c4n2CCCCC4=C(c2ccccc2)C3)cc1 | 63.1 | 78.7
C[N+](C)(CCCCCC[N+](C)(C)CCCN1C(=O)c2cccc3cccc(c23)C1=O)CCCN1C(=O)c2cccc3cccc(c23)C1=O | 3.64 | 5.15
Cc1ccc(C(=O)n2c(N)nc3ccccc32)cc1 | 89.9 | > 100
CC(/C=N/NC(=O)c1cc(-c2ccc3ccccc3c2)n[nH]1)=C\c1ccco1 | 43.8 | 66.8
O=C(C[C@@H]1C/C=C\C[C@H](NC(=O)OCC2c3ccccc3-c3ccccc32)C(=O)OC[C@H]2CCCN2C1=O)N[C@@H](CO)Cc1ccccc1 | 27.3 | 37.2
CCOC(=O)CSc1nnc(-c2ccc(S(=O)(=O)NCc3cccs3)cc2)o1 | 5.1 | 7.29
CC(CC(=O)Nc1ccc(Cl)c([N+](=O)[O-])c1)c1ccccc1 (stereo unspecified) | 18 | 29.4
CN(C(=O)COC(=O)c1ccc([N+](=O)[O-])cc1Cl)C1CCCCC1 | 19.2 | > 100
CC1(c2cc([N+](=O)[O-])cc([N+](=O)[O-])c2)CC(C)(C)N(C(=O)c2ccccc2)c2ccccc21 (stereo unspecified) | 20.8 | 28.9
O=C1NCN(c2ccccc2)C12CCN(CCCC(c1ccc(F)cc1)c1ccc(F)cc1)CC2 | 43.2 | 49.2
COc1cccc(-c2cc3nc4c(c(NCC(C)(C)CN(C)C)n3n2)CCCC4)c1 | 27.5 | 36.3
COc1ccc2nc(NC(=O)C3CCCN(S(=O)(=O)c4cccs4)C3)sc2c1 (stereo unspecified) | 14.9 | 24.2
O=c1oc(-c2cccs2)nc2c1cnn2-c1ccccc1 | – | > 100
Cc1cccc(NC(=O)c2nc[nH]c2C(=O)N[C@H](C)c2ccccc2)c1 | 10.2 | > 100
CCN1CCN(c2oc(COc3ccc(-c4ccccc4)cc3)nc2C#N)CC1 | 36.4 | 47.6

SMILES | IC50 [µM] | IC90 [µM]
CCCCCC(=O)N/N=C(\C)c1ccccn1 | 29 | 38.9
NC1=NC2(CCC(c3ccccc3)CC2)n2c(nc3ccccc32)N1 (stereo unspecified) | 32.5 | 43.7
CC(C)(C)NC(=O)C(=O)NNC(=O)c1ccc(C(C)(C)C)cc1 | 14.4 | > 100
CSCCC1NC(=O)N(CC(=O)N2N=C(c3ccc(Cl)cc3)CC2c2ccco2)C1=O (stereo unspecified) | 10.9 | 13.6
CCCCC(O)(CCCC)C(=O)NN(C(=O)CCl)c1ccccc1 | 11.1 | 22.8
CCCC(NCC(O)COc1ccc(-c2ccccc2)cc1)c1ccccc1 (stereo unspecified) | 12.8 | 14.7
CCOC(=O)C1=C(C)Nc2nc(SCC(=O)OC)nn2C1c1cc(F)cc(F)c1 (stereo unspecified) | 9.99 | 12.5
CN1CCN(C(=O)/C=C/c2cn(-c3ccccc3)nc2-c2ccc3c(c2)OCCO3)CC1 | – | > 100
CC(=O)OCC1O[C@@H](O[C@@H]2C[C@H]3C(C)(C)[C@H](OC(C)=O)CC[C@]3(C)[C@H]3CC[C@]45C[C@]4(CC[C@H]5[C@@H](C)C[C@@H](O)[C@H](O)C(C)(C)O)[C@@]32C)[C@H](O)[C@@H](O)[C@@H]1O (stereo partly specified) | 25.9 | 35.7
Nc1ccc(S(=O)(=O)Nc2cnc3ccccc3n2)cc1 | 23.7 | 27.3
Cc1nnc(SCc2ccccc2Cl)n(N)c1=O | – | > 100
CCOC(=O)c1sc2ncnc(NCC(c3cccs3)N(C)C)c2c1C (stereo unspecified) | 42 | 57
CN(C(=S)NC(=O)c1ccc(Cl)cc1)C1CCCCC1 | 9.46 | 14.7
Cc1ccc2c(c1)c1ncnc(N3CCc4ccccc4C3)c1n2C | 73.8 | > 100
Cc1ccc(C(=O)c2cc(C)sc2NC(=O)CN2CCN(C(=O)c3ccco3)CC2)cc1 | 14.9 | 27.4
O=C(CSC1=NC(=O)C(c2ccccc2)C(=O)N1)Nc1ccccc1Cl (stereo unspecified) | 7.27 | 24.2
CC1=NN(C(N)=S)C(=O)C1N=Nc1ccc(C)c(Br)c1 (stereo unspecified) | 37.2 | > 100
O=C1C(Br)=Cc2cccc3cccc1c23 | < 0.2 | < 0.2
C=CCNC(=O)c1onc(CCl)c1C(=O)OC | 5.76 | 14.2
